Laboratory results reported in US20130224239A1, “ALCOHOLIC EXTRACT OF FUNGI OF GENUS […] AND USE THEREOF” (KING SAUD UNIVERSITY, priority 2011, published 2013).
Values after ≈ are worked out from the molar mass of the structure shown.

Columns and labels:
Format in all cases: cell-based
[1] = system: Salmonella typhimuium (RCMB 0104); assay: Antimicrobial screening, disc diffusion; settings: Salmonella typhimuim; compounds isolated from Cunninghamella elegans
Protocol: (§1) The alcoholic extracts obtained were used for testing their antimicrobial activity. Each extract (0.5 g) was dissolved in 10 ml water. Same concentrations for the successive extracts (using diethyl ether, chloroform, ethyl acetate and n-butanol) were also prepared.
(§2) The representatives of Gram negative bacteria, namely Salmonella typhimuium (RCMB 0104), Escherichia coli (RCMB 0103), Pseudomonas aeruginosa (RCMB 0102) and Gram positive bacteria, namely Bacillus subtilis (RCMB 0107), Staphylococcus aureus (RCMB 0106), Streptococcus pyogenes (RCMB 0109), unicellular fungi, namely Candida albicans (RCMB 5002) and filamentous fungi, namely Aspergillus fumigatus (RCMB 2003) and Penicllium expansum (RCMB 1006) were used as test organisms (RCMB: The Regional Center for Mycology and Biotechnology, Al-azhar University Nasser City, Cairo, Egypt).
(§3) For antimicrobial screening the well known disc diffusion and agar well diffusion methods were used, together with the determination of minimum inhibitory concentration (MIC), see Duguid et al., Microbial Infections, The English Language Book Society, Churchill Livingston, Edingburgh, London, 1978; vol. 1, page 110.
(§4) Disc diffusion method: The agar disc diffusion method is employed for the determination of antimicrobial activities of the extracts of the investigated fungal species. Sterilized paper discs (Whatman No. 1) ([…]) were separately soaked in the extracts and transferred onto the surface of growth media seeded with the test organism. After incubation period, following suitable conditions for the test organism, the diameter of the inhibition zone around the discs was measured in millimeters.
Each fungal species was grown on malt extract media at 28±2° C. for 14 days. The metabolites of the fungal species were screened for antimicrobial activity.

[2] = system: Streptococcus pyogenes (RCMB 0109); assay: Antimicrobial screening, disc diffusion; settings: compounds isolated from Cunninghamella elegans
Protocol: as §1, §2, §3
as §4, with “millimeters. The obtained result was the mean of three experiments.” for “millimeters.”
(§5) Each fungal species was grown on malt extract media at 28±2° C. for 14 days. The metabolites of the fungal species were screened for antimicrobial activity. The inhibition zones around each disc were measured, in millimeter, and recorded (Tables 1).

[3] = system: Aspergillus fumigatus (RCMB 2003); assay: Antimicrobial screening, disc diffusion; settings: compounds isolated from Cunninghamella elegans
Protocol: as §1, §2, §3
as §4, with “millimeters. The obtained result was the mean of three experiments.” for “millimeters.”
as §5

[4] = system: Escherichia coli (RCMB 0103); assay: Antimicrobial screening, disc diffusion; settings: compounds isolated from Cunninghamella elegans
Protocol: as §1, §2, §3
as §4, with “millimeters. The obtained result was the mean of three experiments.” for “millimeters.”
as §5

[5] = system: Pseudomonas aeruginosa (RCMB 0102); assay: Antimicrobial screening, disc diffusion; settings: Pseudomonas aeurginosa; compounds isolated from Cunninghamella elegans
Protocol: as §1, §2, §3
as §4, with “millimeters. The obtained result was the mean of three experiments.” for “millimeters.”
as §5

[6] = system: Candida albicans (RCMB 5002); assay: Antimicrobial screening, disc diffusion; settings: compounds isolated from Cunninghamella elegans
Protocol: as §1, §2, §3
as §4, with “millimeters. The obtained result was the mean of three experiments.” for “millimeters.”
as §5

[7] = system: Bacillus subtilis (RCMB 0107); assay: Antimicrobial screening, disc diffusion; settings: compounds isolated from Cunninghamella elegans
Protocol: as §1, §2, §3
as §4, with “millimeters. The obtained result was the mean of three experiments.” for “millimeters.”
as §5

[8] = system: Staphylococcus aureus (RCMB 0106); assay: Antimicrobial screening, disc diffusion; settings: compounds isolated from Cunninghamella elegans
Protocol: as §1, §2, §3
as §4, with “millimeters. The obtained result was the mean of three experiments.” for “millimeters.”
as §5

[9] = system: Penicllium expansum (RCMB 1006); assay: Antimicrobial screening, disc diffusion; settings: Penicillium expansum; compounds isolated from Cunninghamella elegans
Protocol: as §1, §2, §3
as §4, with “millimeters. The obtained result was the mean of three experiments.” for “millimeters.”
as §5

Staphylococcus aureus = assay: Minimum inhibitory concentration, agar well diffusion; settings: against Staphylococcus aureus
Excerpt: as §3
Agar well diffusion method: On the other hand, the agar well diffusion method was employed for determination of the minimum inhibitory concentration (MIC). The test organisms were separately seeded in the agar medium. The wells (10 mm in diameter) were cut from the agar and […] (different concentrations) was transferred into them. After incubation period, following suitable conditions for the test organism, the diameter of the inhibition zone around the discs was measured in millimeters. The obtained result was the mean of three experiments.
The minimum inhibitory concentration (MIC) of Cunninghamella blakesleeana, C. elegans, C. homothallica and successive extracts and isolated compounds of Cunninghamella elegans against Staphylococcus aureus was determined.
Minimum inhibitory concentration (MIC): The lowest concentration of an antimicrobial agent that will inhibit a visible growth of a microorganism after overnight incubation.

SMILES: O=c1ccn([C@@H]2O[C@H](CO)[C@@H](O)[C@H]2O)c(=O)[nH]1 [Compound 5, pyrimidine-2,4-dion, 1-ribose]
- Diameter of inhibition zone [1]: 00.0 mm
- Diameter of inhibition zone [2]: 00.0 mm
- Diameter of inhibition zone [3]: 00.0 mm
- Diameter of inhibition zone [4]: 00.0 mm
- Diameter of inhibition zone [5]: 00.0 mm
- Diameter of inhibition zone [6]: 00.0 mm
- Diameter of inhibition zone [7]: 00.0 mm
- Diameter of inhibition zone [8]: 11.0 ± 0.1 mm
- Diameter of inhibition zone [9]: 00.0 mm
- Minimum inhibitory concentration (Staphylococcus aureus): 150 µg/mL (≈ 614 µM)

SMILES: C=C(CC(=O)O)C(=O)OC [Compound 8, 3-(methoxycarbonyl)-but-3-enoic acid]
- Diameter of inhibition zone [1]: 00.0 mm
- Diameter of inhibition zone [2]: 00.0 mm
- Diameter of inhibition zone [3]: 00.0 mm
- Diameter of inhibition zone [4]: 00.0 mm
- Diameter of inhibition zone [5]: 00.0 mm
- Diameter of inhibition zone [6]: 00.0 mm
- Diameter of inhibition zone [7]: 00.0 mm
- Diameter of inhibition zone [8]: 07.0 ± 0.5 mm
- Diameter of inhibition zone [9]: 00.0 mm
- MIC (Staphylococcus aureus; read-out: Minimum inhibitory concentration): 210 µg/mL (≈ 1460 µM)
